Test results reported in the supplement of paper PMC10307832.

Experiments:
Test in all cases: relative viability (nuclei count vs DMSO), 5 days (fraction); higher = more cells survive
Dactolisib + Decitabine = compound: Cn1c(=O)n(-c2ccc(C(C)(C)C#N)cc2)c2c3cc(-c4cnc5ccccc5c4)ccc3ncc21 [Dactolisib] + Nc1ncn([C@H]2C[C@H](O)[C@@H](CO)O2)c(=O)n1 [Decitabine] (partner 2 µM)
In short: (§1)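 Relative viability equals treated-well nuclei counts divided by vehicle-well nuclei counts. Counts came from 4× images of lung cancer cell lines grown in 1536-well plates for 5 days after pin-tool dosing on the day after seeding. Dosing used one drug alone or a fixed anchor-drug dose plus five library-drug doses (not always all listed) in √10 steps, and values are medians of duplicate plates.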

Dactolisib + Linsitinib = compound: Cn1c(=O)n(-c2ccc(C(C)(C)C#N)cc2)c2c3cc(-c4cnc5ccccc5c4)ccc3ncc21 [Dactolisib] + C[C@]1(O)C[C@@H](c2nc(-c3ccc4ccc(-c5ccccc5)nc4c3)c3c(N)nccn32)C1 [Linsitinib] (partner 1 µM)
In short: as §1

AZ505 + Luminespib = compound: C1CCC(CC1)N(CCNCCC2=C3C(=C(C=C2)O)NC(=O)CO3)C(=O)CCNCCC4=CC(=C(C=C4)Cl)Cl [AZ505] + CCNC(=O)c1noc(-c2cc(C(C)C)c(O)cc2O)c1-c1ccc(CN2CCOCC2)cc1 [Luminespib] (partner 0.01 µM)
In short: as §1

Dactolisib + Trametinib = compound: Cn1c(=O)n(-c2ccc(C(C)(C)C#N)cc2)c2c3cc(-c4cnc5ccccc5c4)ccc3ncc21 [Dactolisib] + CC(=O)Nc1cccc(-n2c(=O)n(C3CC3)c(=O)c3c(Nc4ccc(I)cc4F)n(C)c(=O)c(C)c32)c1 [Trametinib] (partner 0.02 µM)
In short: as §1

Row | Cell Line | relative viability (Dactolisib + Decitabine; first compound 0.002 µM) | relative viability (Dactolisib + Decitabine; first compound 0.006325 µM) | relative viability (Dactolisib + Decitabine; first compound 0.02 µM) | relative viability (Dactolisib + Decitabine; first compound 0.06325 µM) | relative viability (Dactolisib + Decitabine; first compound 0.2 µM) | relative viability (Dactolisib + Linsitinib; first compound 0.002 µM) | relative viability (Dactolisib + Linsitinib; first compound 0.006325 µM) | relative viability (Dactolisib + Linsitinib; first compound 0.02 µM) | relative viability (Dactolisib + Linsitinib; first compound 0.06325 µM) | relative viability (Dactolisib + Linsitinib; first compound 0.2 µM) | relative viability (AZ505 + Luminespib; first compound 0.08 µM) | relative viability (AZ505 + Luminespib; first compound 0.253 µM) | relative viability (AZ505 + Luminespib; first compound 0.8 µM) | relative viability (AZ505 + Luminespib; first compound 2.53 µM) | relative viability (AZ505 + Luminespib; first compound 8 µM) | relative viability (Dactolisib + Trametinib; first compound 0.002 µM) | relative viability (Dactolisib + Trametinib; first compound 0.006325 µM) | relative viability (Dactolisib + Trametinib; first compound 0.02 µM) | relative viability (Dactolisib + Trametinib; first compound 0.06325 µM) | relative viability (Dactolisib + Trametinib; first compound 0.2 µM)
1 | NCI-H1395 | 0.601 | 0.69 | 0.667 | 0.505 | 0.447 | 0.91 | 0.844 | 0.998 | 0.653 | 0.834 | 0.618 | 0.752 | 0.693 | 0.696 | 0.66 | 0.867 | 0.889 | 0.93 | 0.637 | 0.487
2 | NCI-H1437 | 0.716 | 0.551 | 0.676 | 0.569 | 0.482 | 1.05 | 0.985 | 0.981 | 0.596 | 0.315 | 1.04 | 1.15 | 1.17 | 1.09 | 1.07 | 0.558 | 0.507 | 0.487 | 0.369 | 0.292
3 | NCI-H1651 | 0.644 | 0.689 | 0.503 | 0.327 | 0.314 | 1.03 | 0.743 | 0.714 | 0.321 | 0.293 | 0.78 | 0.881 | 0.736 | 0.841 | 0.944 | 0.816 | 0.825 | 0.822 | 0.599 | 0.452
4 | NCI-H1666 | 0.836 | 0.714 | 0.756 | 0.607 | 0.596 | 0.939 | 0.865 | 0.776 | 0.506 | 0.42 | 0.974 | 0.952 | 0.931 | 0.987 | 0.997 | 0.855 | 0.804 | 0.835 | 0.734 | 0.742
5 | NCI-H1734 | 0.542 | 0.491 | 0.478 | 0.341 | 0.259 | 1.02 | 0.755 | 0.72 | 0.336 | 0.318 | 0.234 | 0.197 | 0.221 | 0.232 | 0.161 | 0.69 | 0.557 | 0.624 | 0.374 | 0.25
6 | NCI-H1755 | 0.87 | 0.768 | 0.766 | 0.673 | 0.536 | 0.983 | 0.971 | 0.989 | 0.763 | 0.622 | 0.505 | 0.589 | 0.448 | 0.594 | 0.444 | 0.779 | 0.759 | 0.724 | 0.611 | 0.486
7 | NCI-H1792 | 0.56 | 0.429 | 0.414 | 0.186 | 0.121 | 0.57 | 0.483 | 0.382 | 0.112 | 0.0865 | 0.359 | – | 0.452 | 0.478 | 0.404 | 0.498 | 0.407 | 0.267 | 0.174 | 0.0814
8 | NCI-H1793 | 0.454 | 0.319 | 0.266 | 0.231 | 0.172 | 0.813 | 0.559 | 0.321 | 0.183 | 0.158 | 0.199 | 0.173 | 0.179 | – | 0.167 | 0.418 | 0.359 | 0.244 | 0.231 | 0.196
9 | NCI-H1915 | 0.291 | 0.259 | 0.266 | 0.285 | 0.251 | 1.11 | 1.13 | 1.11 | 0.901 | 0.631 | 0.769 | 0.928 | 0.75 | 0.783 | 0.986 | 0.32 | 0.296 | 0.304 | 0.229 | 0.178
10 | NCI-H1944 | 0.502 | 0.416 | 0.45 | 0.272 | 0.262 | 1.36 | 1.17 | 1.06 | 0.524 | 0.428 | 0.827 | 0.715 | 0.77 | 0.707 | 0.738 | 0.429 | 0.408 | 0.364 | 0.23 | 0.22
11 | NCI-H1975 | 0.387 | 0.349 | 0.394 | 0.286 | 0.25 | 1.01 | 0.847 | 0.551 | 0.32 | 0.256 | 0.198 | 0.197 | 0.197 | 0.162 | 0.2 | 0.36 | 0.292 | 0.323 | 0.191 | 0.161
12 | NCI-H1993 | 0.722 | 0.503 | 0.511 | 0.389 | 0.46 | 0.674 | 0.686 | 0.734 | 0.645 | 0.73 | 0.842 | 0.795 | 0.716 | 0.911 | 0.861 | 0.514 | 0.455 | 0.504 | 0.389 | 0.421
13 | NCI-H2009 | 0.381 | 0.373 | 0.362 | 0.34 | 0.268 | 1.21 | 1.18 | 1.26 | 0.639 | 0.497 | 0.847 | 1.08 | 1.02 | 0.956 | 0.962 | 0.276 | 0.272 | 0.213 | 0.154 | 0.126
